The source of these data is US11267802B2 (BEBETTER MED INC., priority 2015, dated 2022).

The target in one data set is T1, EGFR T790M/L858R (Homo sapiens, UniProt P00533, L858R/T790M).
T1 construct: purchased Invitrogen PR8911A
As to the kind of experiment: Mutant EGFR T790M/L858R activity inhibition assay (Caliper mobility shift). To be noted: read-out: enzyme activity inhibition (IC50) EGFR T790M/L858R. Format: biochemical. The essentials:
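Compound added in 10% DMSO at 5-fold final concentration; substrate conversion read by Caliper mobility shift. Inhibition = (max−conversion)/(max−min)×100, with max from DMSO no-compound wells and min from no-enzyme wells; IC50 from fitted concentration–response curve.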

In the next data set the test system is H358. Briefly: Inhibition assay on tumor cell proliferation (CellTiter-Glo), H358. Format: cell-based, Human. The following applies: Homo sapiens, NCI-H358; H358 (wild-type EGFR), 72 hours, 10% bovine serum. The essentials:
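Viability from ATP content by CellTiter-Glo luminescence; inhibition normalised to DMSO (max) and medium-only (min) wells, IC50 by sigmoidal dose-response fitting. LOVO and H358 carry wild-type EGFR; HCC827 has exon 19 deletion.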

Another data set deals with H1975. As to the kind of experiment: Inhibition assay on tumor cell proliferation (CellTiter-Glo), H1975. Format: cell-based, Human. The following applies: Homo sapiens, NCI-H1975; H1975 (L858R and T790M EGFR double mutation), 72 hours, 10% bovine serum.
The subject of another data set is H1975 xenograft tumor. Briefly: Potency assay of tumor model, 16 consecutive days. To be noted: oral, 30 mg/kg qd, 16 days. The data set is classed as in vivo, Balb/C nude mice. The procedure: Balb/C nude mice were purchased from Beijing Vital River Laboratory Animal Technology Co., Ltd., and housed in SPF animal room. The human non-small-cell lung cancer cell line H1975 in a culture dish was collected by trypsin-EDTA (0.25% trypsin, 1 mM EDTA), and then washed with a serum-free PBS solution. Lastly, the cells were implanted after diluted in a serum-free medium. Only the single cell suspension with a survival rate over 90% (Trypan blue rejection) can be used for injection. 5 million cells suspended in a 0.1 ml serum-free culture were injected into the front right flanking subcutaneous region of each mouse by using a 1 ml syringe and a 25G syringe needle, and the blood vessel was carefully avoided. The tumor size was measured in about one week after implantation. A caliper rule was used to measure the tumor size. The tumor volume was calculated by the following formula: tumor volume=(length×width^2)/2.
This experiment studied the inhibition of tumor growth in H1975 xenograft tumor model by the compounds 20, 50, 91, and 118. When the mean volume of H1975 tumor reached about 260 mm^3, the animals were divided into 5 oral administration groups, that is, excipient control group and groups of oral administration of compound 20, compound 50, compound 91, and compound 118, respectively (n=8/group). These compounds were dissolved in 30% sulfobutylated beta-cyclodextrin (SBE-β-CD) and 1N HCl (pH 3-4). […]

The nature of data set [1]: Pharmacokinetics in rats after oral administration. The data set is classed as in vivo, SD rats. As for the experimental part: Male SD rats weighing 250-300 g, or male beagles weighing 9-10 kg, were fasted overnight before the experiment. The object compounds were dissolved in 30% sulfobutylated beta-cyclodextrin (SBE-β-CD), and orally administrated to the rats at a dose of 20 mg/kg or to the beagles at a dose of 5 mg/kg. Blood samples were taken at 15 minutes, 30 minutes, 1 hour, 2 hours, 3 hours, 4 hours, 6 hours, 8 hours and 24 hours after administration. 0.3 ml of blood was collected at every time point, placed in a centrifuge tube containing K2-EDTA (ethylenediamine tetraacetic acid dipotassium) and centrifuged (2,000 g, 10 minutes, 4° C.) to collect plasma, which was then stored in an ultra cold storage freezer at −80° C. 50 μL of plasma sample was mixed with 5 μL of internal standard (IS), and then extracted with ethyl acetate. After vacuum drying, the residue was re-dissolved in acetonitrile. The sample was filtered and injected into LC-MS/MS for analysis.

A further data set deals with LOVO. Briefly: Inhibition assay on tumor cell proliferation (CellTiter-Glo), LOVO. To be noted: Homo sapiens; LOVO (wild-type EGFR), 72 hours, 10% bovine serum. The data set is classed as cell-based, Human. The procedure:
By using a CellTiter-Glo luminescence cell viability test kit (Promega, # G7572), the content of adenosine triphosphate (ATP) was determined to assess the cell viability.
Human colon cancer cell line LOVO and human non-small-cell lung cancer H358 express wild-type EGFR. Human non-small-cell lung cancer cell line HCC827 carries deletion mutation in exon 19 (ex19del). Those cell lines are purchased from Shanghai Fudan IBS Cell Resource Center and American Tissue Culture Collection (ATCC).
The assay procedure is as follows. The cells in a cell culture plate were digested with a pancreatic enzyme, re-suspended in a DPBS culture medium, and had the cell density counted by Scepter automated cytometer (Millipore # PHCC00000). The cells were diluted to a solution of 44,000 cells per ml. The cell solution with adjusted density was added to the cell assay plate at 90 microliters per well. The plate was placed in an incubator with 5% CO2 at 37° C. for 24 hours of incubation, and then added with different concentrations of subject compounds. The cells were incubated for 72 hours with the compounds in presence of 10% bovine serum. The content of ATP was determined by a CellTiter-Glo® Luminescent Cell Viability Assay kit (see the manufacturer's instruction for details) to evaluate cell-growth inhibition.
Briefly, 30 μl of CellTiter-Glo® reagent was added to each well, and then shaken for 10 minutes to induce cell lysis. The fluorescent signal was detected and recorded by Fluoroskan Ascent FL (Thermo). The max signal value was obtained from the cells treated by dimethyl sulfoxide for 72 hours. The min signal value was obtained from the medium alone (the number of the cells was 0). Inhibitory rate %=(max signal value−compound signal value)/(max signal value−min signal value)×100. The data was processed by GraphPad Prism V5.0 software (GraphPad Software, San Diego, Calif.). Sigmoidal dose-response curve fitting was performed to calculate the IC50 value.
For orientation: ATP-based viability assays read luminescence as a measure of living cells.

The mark [2] stands for this setting: male, SD, rat, 20 mg/kg, plasma.

Broadly, the melting point is the temperature, or range, at which the solid turns liquid. By AUC(0-inf) is commonly meant total exposure, with the tail of the curve extrapolated. In general, Cmax refers to the highest concentration seen after dosing. The Tmax is the time at which the peak concentration occurs. Usually half-life stands for the time needed for the level to fall by half in the phase considered. A lower half-life goes with rapid decline.

pIC50: −log10 of the molar value.

T1 sequence (P00533 25-1210 T790M/L858R): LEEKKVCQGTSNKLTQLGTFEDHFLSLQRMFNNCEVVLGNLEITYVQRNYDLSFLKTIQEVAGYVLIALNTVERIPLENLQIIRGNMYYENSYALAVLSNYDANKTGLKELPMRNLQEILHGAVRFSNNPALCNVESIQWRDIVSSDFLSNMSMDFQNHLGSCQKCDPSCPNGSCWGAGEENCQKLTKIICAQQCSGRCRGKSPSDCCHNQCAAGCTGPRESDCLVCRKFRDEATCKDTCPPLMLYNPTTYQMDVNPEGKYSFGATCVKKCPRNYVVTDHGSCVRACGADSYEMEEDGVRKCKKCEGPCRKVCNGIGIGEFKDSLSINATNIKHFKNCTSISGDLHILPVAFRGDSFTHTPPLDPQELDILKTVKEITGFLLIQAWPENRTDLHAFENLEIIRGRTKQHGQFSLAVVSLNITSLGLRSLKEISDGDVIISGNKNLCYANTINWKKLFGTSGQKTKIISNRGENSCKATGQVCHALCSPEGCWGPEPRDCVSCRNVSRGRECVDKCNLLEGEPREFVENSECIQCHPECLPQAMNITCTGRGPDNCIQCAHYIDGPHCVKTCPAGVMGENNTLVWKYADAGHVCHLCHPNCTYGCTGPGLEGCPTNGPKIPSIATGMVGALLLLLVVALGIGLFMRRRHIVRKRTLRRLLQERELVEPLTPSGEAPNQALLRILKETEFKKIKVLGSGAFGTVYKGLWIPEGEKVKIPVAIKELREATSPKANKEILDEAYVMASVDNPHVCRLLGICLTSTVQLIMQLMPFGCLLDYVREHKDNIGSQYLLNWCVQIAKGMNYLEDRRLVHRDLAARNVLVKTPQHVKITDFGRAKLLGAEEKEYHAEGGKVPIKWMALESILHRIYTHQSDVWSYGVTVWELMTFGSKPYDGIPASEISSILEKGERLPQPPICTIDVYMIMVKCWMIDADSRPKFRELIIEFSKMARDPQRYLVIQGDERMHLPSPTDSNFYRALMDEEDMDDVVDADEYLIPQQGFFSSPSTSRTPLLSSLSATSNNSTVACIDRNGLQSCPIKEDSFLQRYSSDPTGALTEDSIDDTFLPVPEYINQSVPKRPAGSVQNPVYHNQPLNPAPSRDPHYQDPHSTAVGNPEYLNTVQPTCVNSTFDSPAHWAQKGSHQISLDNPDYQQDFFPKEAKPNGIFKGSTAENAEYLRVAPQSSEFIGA

In turn, `C=CC(=O)Nc1cc(Nc2nccc(-n3c(=O)n(C)c4ccccc43)n2)c(C)cc1N(C)CCN(C)C` [Compound 118, N-(2-((2-(dimethylamino)ethyl) (methyl)amino)-4-methyl-5-((4-(3-methyl-2-oxo-2,3-dihydro-1H-benzo[d]imidazol-1-yl)pyrimidin-2-yl)amino)phenyl)acrylamide] yielded a melting point of 208 to 210 °C. Further, at EGFR T790M/L858R, the pIC50 was greater than 9.00. In addition, the pIC50 in the data set with H358 is 6.00 to 7.00. The compound further had a pIC50 in the data set with H1975 greater than 8.00. In addition, the “inhibition of growth of H1975 xenograft tumor (in words)” value with H1975 xenograft tumor was “tumor regression”.

With `C=CC(=O)Nc1cc(Nc2nccc(-n3ccc4nc(OC)ccc43)n2)c(OC)cc1N(C)CCN(C)C` [Compound 20, N-(2-((2-(dimethylamino)ethyl)(methyl)amino)-4-methoxy-5-((4-(5-methoxy-1H-pyrrolo[3,2-b]pyridin-1-yl)pyrimidin-2-yl)amino)phenyl)acrylamide], in data set [1], the “absorption / blood exposure after oral administration (in words)” value is “well absorbed, with high blood exposure”. Moreover, in data set [1] (setting [2]), the AUC(0-inf) came to 1450 ng·h/mL, the Cmax came out at 350 ng/mL, the Tmax was determined as 1.67 h and the half-life was 3.7 h. Moreover, in data set [1] (male, SD, rat, 20 mg/kg, plasma, read-out: AUC0-24), the AUC(0-t) stood at 1440 ng·h/mL. Besides, on EGFR T790M/L858R, the pIC50 is greater than 9.00. Besides, the pIC50 in the data set on H358 was 6.00 to 7.00. In the data set on H1975, this compound gave a pIC50 greater than 8.00. Moreover, in the data set on H1975 xenograft tumor, the “inhibition of growth of H1975 xenograft tumor (in words)” value was “tumor regression”.

`C=CC(=O)Nc1cc(Nc2ncc(N(C)C)c(-n3ccc4ccccc43)n2)c(OC)cc1N(C)CCN(C)C` [Compound 10, N-(5-(5-(dimethylamino)-4-(1H-indol-1-yl)pyrimidin-2-ylamino)-2-((2-(dimethylamino)ethyl)(methyl)amino)-4-methoxyphenyl)acrylamide] returned a melting point of 154 to 155 °C. In addition, in the data set with LOVO, the pIC50 is less than 6.00. For the same compound, the pIC50 on EGFR T790M/L858R was 8.00 to 9.00. This compound had a pIC50 with H358 of 6.00 to 7.00. Further, the pIC50 in the data set on H1975 is greater than 8.00.

`C=CC(=O)Nc1cc(Nc2nccc(-n3ccc4ccccc43)n2)c(OC)cc1N1CC[C@H](N(C)C)C1` [Compound 78, (S)—N-(5-((4-(1H-indol-1-yl)pyrimidin-2-yl)amino)-2-(3-(dimethylamino)pyrrolidin-1-yl)-4-methoxyphenyl)acrylamide]: the melting point is 161 to 162 °C. In addition, the pIC50 in the data set with LOVO was less than 6.00. At EGFR T790M/L858R, the pIC50 was 8.00 to 9.00. This compound also had a pIC50 with H358 of less than 6.00. In the data set with H1975, this compound gave a pIC50 of 7.30 to 8.00.

`C=CC(=O)Nc1cc(Nc2nccc(-n3ccc4cc(OCCOC)ccc43)n2)c(OC)cc1N(C)CCN(C)C` [Compound 38, N-(2-((2-(dimethylamino)ethyl)(methyl)amino)-4-methoxy-5-((4-(5-(2-methoxyethoxy)-1H-indol-1-yl)pyrimidin-2-yl)amino)phenyl)acrylamide] came in with a melting point of 59 to 61 °C. Also, the pIC50 with LOVO is less than 6.00. In addition, the pIC50 at EGFR T790M/L858R was greater than 9.00. For the same compound, the pIC50 in the data set on H358 is 6.00 to 7.00. The compound further had a pIC50 with H1975 greater than 8.00.

Take `C=CC(=O)Nc1cc(Nc2nccc(-n3c(=O)n(C)c4cc(C#N)ccc43)n2)c(OC)cc1N(C)CCN(C)C` [Compound 52, N-(5-((4-(5-cyano-3-methyl-2-oxo-2,3-dihydro-1H-benzo[d]imidazol-1-yl)pyrimidin-2-yl)amino)-2-((2-(dimethylamino)ethyl)(methyl)amino)-4-methoxyphenyl)acrylamide]: the melting point fell in the range of 183 to 185 °C. In the data set on LOVO, the pIC50 was less than 6.00. Besides, the pIC50 on EGFR T790M/L858R is greater than 9.00. This compound also showed a pIC50 in the data set with H358 of 6.00 to 7.00. Also, the pIC50 in the data set with H1975 is greater than 8.00.

Turning to `C=CC(=O)Nc1cc(Nc2nccc(-n3ccc4ccc(F)cc43)n2)c(OC)cc1N(C)CCN(C)C` [Compound 29, N-(2-((2-(dimethylamino)ethyl)(methyl)amino)-5-((4-(6-fluoro-1H-indol-1-yl)pyrimidin-2-yl)amino)-4-methoxyphenyl)acrylamide], the melting point fell in the range of 164 to 165 °C. This compound gave a pIC50 in the data set with LOVO of less than 6.00. The pIC50 on EGFR T790M/L858R is greater than 9.00. In addition, the pIC50 in the data set with H358 is 6.00 to 7.00. The same compound showed a pIC50 in the data set on H1975 greater than 8.00.

Turning to `C=CC(=O)Nc1cc(Nc2ncc(OC)c(-n3c(=O)n(C)c4ccccc43)n2)c(OC)cc1N(C)CCN(C)C` [Compound 57, N-(2-((2-(dimethylamino)ethyl) (methyl)amino)-4-methoxy-5-((5-methoxy-4-(3-methyl-2-oxo-2,3-dihydro-1H-benzo[d]imidazol-1-yl)pyrimidin-2-yl)amino)phenyl)acrylamide], the melting point was in the range of 168 to 172 °C. For the same compound, in the data set on LOVO, the pIC50 is less than 6.00. For the same compound, on EGFR T790M/L858R, the pIC50 is 8.00 to 9.00. The compound also had a pIC50 in the data set with H358 of less than 6.00. For the same compound, in the data set with H1975, the pIC50 was 7.30 to 8.00.

`C=CC(=O)Nc1cc(Nc2nccc(-n3ccc4c(F)cccc43)n2)c(OC)cc1N(C)CCN(C)C` [Compound 30, N-(2-((2-(dimethylamino)ethyl)(methyl)amino)-5-((4-(4-fluoro-1H-indol-1-yl)pyrimidin-2-yl)amino)-4-methoxyphenyl)acrylamide] showed a melting point of 165.5 to 166.5 °C. Moreover, the pIC50 in the data set on LOVO is less than 6.00. Further, at EGFR T790M/L858R, the pIC50 was greater than 9.00. Besides, in the data set with H358, the pIC50 is 6.00 to 7.00. Further, the pIC50 in the data set on H1975 was greater than 8.00.

In the case of `C=CC(=O)Nc1cc(Nc2nccc(-n3c(=O)n(C)c4cc(Cl)ccc43)n2)c(OC)cc1N(C)CCN(C)C` [Compound 51, N-(5-(4-(5-chloro-3-methyl-2-oxo-2,3-dihydro-1H-benzo[d]imidazol-1-yl)pyrimidin-2-ylamino)-2-((2-(dimethylamino)ethyl)(methyl)amino)-4-methoxyphenyl)acrylamide], the melting point fell in the range of 70 to 71 °C. For the same compound, the pIC50 in the data set with LOVO is less than 6.00. For the same compound, at EGFR T790M/L858R, the pIC50 was greater than 9.00. This compound also had a pIC50 in the data set on H358 of 6.00 to 7.00. In addition, in the data set on H1975, the pIC50 is greater than 8.00.

Compound `C=CC(=O)Nc1cc(Nc2nccc(-n3cc(Cl)c4ccccc43)n2)c(OC)cc1N(C)CCN(C)C` [Compound 46, N-(5-((4-(3-chloro-1H-indol-1-yl)pyrimidin-2-yl)amino)-2-((2-(dimethylamino)ethyl)(methyl)amino)-4-methoxyphenyl)acrylamide] had a melting point of 142 to 144 °C. Besides, in the data set with LOVO, the pIC50 is less than 6.00. Also, on EGFR T790M/L858R, the pIC50 was 8.00 to 9.00. The compound further had a pIC50 in the data set with H358 of less than 6.00. The pIC50 in the data set with H1975 was 7.30 to 8.00.
